Patent US11608359B2, “Compounds and methods for treating tight junction permeabtility” (9 Meters Biopharma, Inc., priority 2018, dated 2023)
Where no end group is shown, it is not given here.

Legend:
tight junctions = test: activity as tight junction regulators; details: for activity as tight junction regulator: peptide fragment alone
[1] = clinical trials, particularly lower doses (e.g., 0.5 mg dose); cited from earlier work

Substance	activity as tight junction regulator (tight junctions)	activity of full length Larazotide as tight junction regulator (tight junctions; mixed with the two fragments GVLVQPG and VLVQPG)	benefit at reducing CeD symptoms [1]
VLVQPG	inactive	–	–
GGVLVQPG [Larazotide]	–	completely abolished	significant benefit
GVLVQP (Synthetic polymer.)	inactive	–	–
VLVQP (Synthetic polymer.)	inactive	–	–
GVLVQPG [Larazotide-derived fragment missing N-terminal glycine]	inactive	–	–
